The supplement of paper PMC10307832

What was measured:
Assay in all cases: relative viability (nuclei count vs DMSO), 5 days (fraction); higher = more cells survive
Neratinib + Foretinib = compound: CCOc1cc2ncc(C#N)c(Nc3ccc(OCc4ccccn4)c(Cl)c3)c2cc1NC(=O)/C=C/CN(C)C [Neratinib] + COc1cc2c(Oc3ccc(NC(=O)C4(C(=O)Nc5ccc(F)cc5)CC4)cc3F)ccnc2cc1OCCCN1CCOCC1 [Foretinib] (partner 0.25 µM)
Procedure, shortened: (§1)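 Lung cancer cell lines were seeded in 1536-well plates and dosed by pin tool the next day, with either a single drug or a fixed anchor-drug dose combined with five library-drug doses (not always all listed) spaced in √10 steps. Five days later, one step fixed the cells and stained their nuclei (final 0.05% Triton X-100, 1% formaldehyde, 1 ug/ml Hoechst), and nuclei were counted on 4× images. Relative viability is the nuclei count in treated wells divided by the count in vehicle wells, and each value is the median of duplicate plates.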

Neratinib + Alpelisib = compound: CCOc1cc2ncc(C#N)c(Nc3ccc(OCc4ccccn4)c(Cl)c3)c2cc1NC(=O)/C=C/CN(C)C [Neratinib] + Cc1nc(NC(=O)N2CCC[C@H]2C(N)=O)sc1-c1ccnc(C(C)(C)C(F)(F)F)c1 [Alpelisib] (partner 2 µM)
Procedure, shortened: as §1

Neratinib + Pemetrexed = compound: CCOc1cc2ncc(C#N)c(Nc3ccc(OCc4ccccn4)c(Cl)c3)c2cc1NC(=O)/C=C/CN(C)C [Neratinib] + Nc1nc2[nH]cc(CCc3ccc(C(=O)N[C@@H](CCC(=O)O)C(=O)O)cc3)c2c(=O)[nH]1 [Pemetrexed] (partner 0.2 µM)
Procedure, shortened: as §1

Neratinib + Olaparib = compound: CCOc1cc2ncc(C#N)c(Nc3ccc(OCc4ccccn4)c(Cl)c3)c2cc1NC(=O)/C=C/CN(C)C [Neratinib] + O=C(c1cc(Cc2n[nH]c(=O)c3ccccc23)ccc1F)N1CCN(C(=O)C2CC2)CC1 [Olaparib] (partner 8 µM)
Procedure, shortened: as §1

| Cell Line | relative viability (Neratinib + Foretinib; first compound 0.01 µM) | relative viability (Neratinib + Foretinib; first compound 0.03162 µM) | relative viability (Neratinib + Foretinib; first compound 0.1 µM) | relative viability (Neratinib + Foretinib; first compound 0.3162 µM) | relative viability (Neratinib + Foretinib; first compound 1 µM) | relative viability (Neratinib + Alpelisib; first compound 0.01 µM) | relative viability (Neratinib + Alpelisib; first compound 0.03162 µM) | relative viability (Neratinib + Alpelisib; first compound 0.1 µM) | relative viability (Neratinib + Alpelisib; first compound 0.3162 µM) | relative viability (Neratinib + Alpelisib; first compound 1 µM) | relative viability (Neratinib + Pemetrexed; first compound 0.01 µM) | relative viability (Neratinib + Pemetrexed; first compound 0.03162 µM) | relative viability (Neratinib + Pemetrexed; first compound 0.1 µM) | relative viability (Neratinib + Pemetrexed; first compound 0.3162 µM) | relative viability (Neratinib + Pemetrexed; first compound 1 µM) | relative viability (Neratinib + Olaparib; first compound 0.01 µM) | relative viability (Neratinib + Olaparib; first compound 0.03162 µM) | relative viability (Neratinib + Olaparib; first compound 0.1 µM) | relative viability (Neratinib + Olaparib; first compound 0.3162 µM) | relative viability (Neratinib + Olaparib; first compound 1 µM) |
| --- | --- | --- | --- | --- | --- | --- | --- | --- | --- | --- | --- | --- | --- | --- | --- | --- | --- | --- | --- | --- |
| SK-LU-1 | 0.917 | 0.938 | 0.816 | 0.46 | 0.302 | 1.18 | 1.16 | 0.915 | 0.587 | 0.447 | 1.01 | 0.999 | 0.932 | 0.917 | 0.49 | 0.486 | 0.549 | 0.413 | 0.432 | 0.314 |
| HOP-62 | 1.16 | 1.08 | 0.982 | 1.14 | 0.92 | 0.903 | 1 | 0.847 | 0.967 |  | 0.323 | 0.31 | 0.206 |  | 0.241 | 0.416 | 0.459 | 0.367 | 0.412 | 0.344 |
| NCI-H358 | 0.613 | 0.478 | 0.339 | 0.154 | 0.103 | 0.781 | 0.841 | 0.372 | 0.236 | 0.22 | 0.172 | 0.161 | 0.168 | 0.133 | 0.153 | 0.552 | 0.569 | 0.409 | 0.238 | 0.162 |
| SK-MES-1 | 0.97 | 0.985 | 0.735 | 0.832 | 0.375 | 0.914 | 0.988 | 0.661 | 0.384 | 0.207 | 1.01 | 0.925 | 0.89 | 0.529 | 0.308 | 0.807 | 0.778 | 0.631 | 0.264 | 0.233 |
| NCI-H1666 | 0.973 | 0.912 | 0.754 | 0.646 | 0.721 | 0.919 | 0.772 | 0.57 | 0.433 | 0.369 | 0.856 | 0.867 | 0.746 | 0.652 | 0.725 | 0.751 | 0.806 | 0.675 | 0.666 | 0.806 |
| NCI-H1355 |  |  | 0.874 | 0.842 | 0.366 | 0.949 | 0.83 | 0.788 | 0.698 | 0.236 | 1.07 | 1.03 | 0.951 | 1.02 | 0.821 | 0.772 | 0.719 | 0.7 | 0.701 | 0.547 |
| HCC-827 | 1.17 | 1.11 | 0.934 | 0.186 | 0.173 | 1.05 | 1.11 | 0.967 | 0.583 | 0.182 | 0.273 | 0.271 | 0.191 | 0.153 | 0.13 | 0.624 | 0.763 | 0.665 | 0.272 | 0.107 |
| HARA | 0.973 | 0.91 |  | 0.496 | 0.375 |  | 0.813 | 0.545 | 0.385 | 0.264 | 0.317 | 0.276 | 0.196 |  | 0.238 | 0.811 |  | 0.778 |  | 0.48 |
| HCC-366 | 0.971 | 0.961 | 0.844 | 0.856 | 1.03 | 0.716 | 0.418 | 0.402 |  | 0.35 | 0.202 | 0.147 | 0.158 | 0.14 | 0.171 | 0.36 | 0.324 | 0.267 | 0.347 | 0.404 |
| NCI-H441 | 1.01 | 1.04 | 1.07 | 0.856 | 0.492 | 0.972 | 0.906 |  | 0.504 | 0.254 | 0.256 | 0.266 | 0.261 | 0.278 | 0.248 | 0.57 | 0.438 | 0.488 | 0.48 | 0.417 |
| NCI-H2405 | 1.06 | 1.08 | 0.922 | 1.04 | 0.57 | 0.815 | 0.808 | 0.811 | 0.633 | 0.287 | 1.19 | 1.16 | 1.02 | 1.04 |  | 0.892 | 0.93 | 0.85 | 0.908 | 0.619 |
| NCI-H1975 |  | 1.02 | 0.972 | 0.421 | 0.174 | 0.85 | 0.738 | 0.546 | 0.153 | 0.192 | 0.295 | 0.336 | 0.284 | 0.25 | 0.178 | 0.917 | 0.96 | 0.644 | 0.43 | 0.18 |
| NCI-H647 | 1.36 | 1.34 |  | 1.11 | 0.601 | 1.17 | 1.13 | 0.958 | 0.862 | 0.614 | 0.187 | 0.174 | 0.19 | 0.156 | 0.134 | 0.426 | 0.518 | 0.4 | 0.294 | 0.263 |
| A-427 | 1.05 |  | 0.972 | 0.935 | 0.255 | 1.01 | 1.16 | 1.06 |  | 0.521 | 1.13 | 1.05 | 0.975 | 0.897 | 0.866 | 0.826 | 0.883 | 0.56 | 0.71 | 0.553 |
| LCLC-97TM1 | 1.07 | 0.952 | 0.829 | 0.824 | 0.483 | 0.26 | 0.254 | 0.24 | 0.255 | 0.115 | 0.186 | 0.209 | 0.138 |  | 0.185 | 0.31 | 0.437 | 0.329 |  | 0.234 |
| HCC-15 | 1.07 | 1.21 |  | 0.885 | 0.66 | 0.931 | 0.92 | 0.864 | 0.859 | 0.584 | 0.205 | 0.222 | 0.233 | 0.227 | 0.205 | 0.697 | 0.819 | 0.673 | 0.667 | 0.659 |
| NCI-H596 | 0.89 | 0.986 |  | 0.798 | 0.622 | 0.464 | 0.474 | 0.433 | 0.489 | 0.304 | 0.523 | 0.529 | 0.472 | 0.493 | 0.488 | 0.633 | 0.726 | 0.622 | 0.659 | 0.574 |
| NCI-H1651 | 0.789 | 0.867 | 0.715 | 0.593 | 0.464 | 1.03 | 1 | 0.823 | 0.783 | 0.616 | 0.619 | 0.629 | 0.565 | 0.57 | 0.516 | 0.183 | 0.191 | 0.185 | 0.19 | 0.193 |
| NCI-H2085 | 0.801 | 1.08 | 0.761 | 0.64 | 0.31 | 1.02 |  | 0.778 | 0.7 | 0.549 | 0.962 | 0.987 | 0.754 | 0.655 | 0.71 | 0.755 | 0.8 | 0.729 | 0.644 | 0.639 |
| COR-L 105 | 0.995 | 1.28 | 0.54 | 0.324 | 0.284 | 1.04 | 0.936 | 0.704 | 0.263 | 0.255 | 1.11 | 1.13 | 0.857 | 0.484 | 0.37 | 0.641 |  | 0.506 | 0.414 | 0.419 |
| NCI-H1734 | 0.953 | 0.887 | 0.683 | 0.775 | 0.469 | 0.744 |  | 0.588 | 0.533 | 0.479 | 0.421 | 0.467 | 0.354 | 0.432 | 0.492 | 0.76 | 0.694 | 0.545 | 0.525 | 0.457 |
| NCI-H322M | 0.863 | 0.958 |  | 0.408 | 0.361 | 0.657 | 0.839 | 0.803 | 0.478 | 0.218 | 0.642 | 0.652 | 0.598 | 0.448 | 0.371 | 0.715 |  | 0.785 | 0.512 | 0.415 |
| CAL-12T | 1.04 | 1.12 | 0.979 | 0.824 | 0.284 | 1.1 | 1.21 | 0.886 | 0.517 | 0.201 | 1.38 | 1.17 | 0.946 | 0.798 | 0.329 | 0.698 | 0.707 | 0.709 | 0.406 | 0.343 |
| HCC-78 | 0.561 | 0.555 | 0.499 | 0.344 | 0.365 | 0.359 | 0.344 | 0.329 | 0.254 | 0.225 | 0.889 | 0.925 | 0.883 | 0.898 | 0.885 | 0.996 | 0.87 | 0.817 | 0.798 | 0.396 |
| NCI-H2087 | 1.36 | 1.24 | 1.05 | 0.742 | 0.536 | 1.15 | 1.11 |  | 1.05 |  | 0.634 | 0.74 | 0.655 | 0.694 | 0.548 | 0.622 | 0.496 | 0.643 | 0.424 | 0.255 |
